Patent EP2975030B1, “DIHYDROPYRIDAZINE-3,5-DIONE DERIVATIVE” (Chugai Seiyaku Kabushiki Kaisha, priority 2013, dated 2014)

Test system: rat small-intestinal brush border membrane vesicles
Assay: Inhibitory effect on 33PO4 uptake into rat small-intestinal brush border membrane vesicles (rapid filtration method)
Assay type: biochemical, Wistar female rat
Conditions: 1 µM test compound; 33PO4 uptake into rat small-intestinal BBMVs, 60 seconds
In short: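 33PO4 uptake into rat small-intestinal brush border membrane vesicles measured by rapid filtration. Reactions were stopped with ice-cold buffer (110 mM NaCl, 1 mM KH2PO4, 10 mM HEPES pH 7.5), filtered and washed. Vesicle-associated radioactivity was counted by liquid scintillation.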

## CN1N(Cc2ccc(OCCN3CCN(S(C)(=O)=O)CC3)c(F)c2F)C(=O)C(C(=O)Nc2ccc(C(F)(F)F)cc2-c2cc(C(F)(F)F)ncn2)=C(O)C12CCC2 [Example 363]
  Rate of uptake inhibition (%) (1 µM): 11%

## CN1N(Cc2ccc(OCCN(CCO)CCO)c(F)c2F)C(=O)C(C(=O)Nc2ccc(C(F)(F)F)cc2-c2cc(C(F)(F)F)ncn2)=C(O)C12CCC2 [Example 351]
  Rate of uptake inhibition (%) (1 µM): 22%

## C[C@]12CCCN1N(Cc1ccc(SCCN3CCOCC3)c(F)c1F)C(=O)C(C(=O)Nc1ccc(C(F)(F)F)cc1-c1ccc(C(F)(F)F)nc1)=C2O.Cl [Example 163, (4aR)-1-[[2,3-Difluoro-4-(2-morpholin-4-ylethylsulfanyl)phenyl]methyl]-4-hydroxy-4a-methyl-2-oxo-N-(4-(trifluoromethyl)-2-[6-(trifluoromethyl)pyridin-3-yl]phenyl)-6,7-dihydro-5H-pyrrolo[1,2-b]pyridazine-3-carboxamide hydrochloride]
  Rate of uptake inhibition (%) (1 µM): 79%

## CC(C)[C@H]1C(O)=C(C(=O)Nc2ccc(Cl)cc2-c2ccc(C(F)(F)F)nc2)C(=O)N(Cc2ccc(OCCN3CCOCC3)c(F)c2F)N1C [Example 281]
  Rate of uptake inhibition (%) (1 µM): 41%

## C[C@]12CCCN1N(Cc1cccc(F)c1F)C(=O)C(C(=O)Nc1ccc(Cl)cc1F)=C2O [Example 76]
  Rate of uptake inhibition (%) (1 µM): 77%

## COC(=O)CN(C)c1ncc(-c2cc(C(F)(F)F)ccc2NC(=O)C2=C(O)[C@@]3(C)CCCN3N(Cc3cccc(F)c3F)C2=O)cc1C#N [Example 112]
  Rate of uptake inhibition (%) (1 µM): 43%

## Cc1cc(NC(=O)C2=C(O)[C@@]3(C)CCCN3N(Cc3cccc(F)c3F)C2=O)c(C(F)(F)F)o1 [Example 7]
  Rate of uptake inhibition (%) (1 µM): 69%

## COCCN1CCC[C@H]1COc1ccc(CN2C(=O)C(C(=O)Nc3ccc(C(F)(F)F)cc3-c3cc(C(F)(F)F)ncn3)=C(O)C3(CCC3)N2C)c(F)c1F [Example 404, 6-[[2,3-Difluoro-4-[[(2S)-1-(2-methoxyethyl)pirrolidin-2-yl]methoxy]phenyl]methyl]-9-hydroxy-5-methyl-7-oxo-N-[4-(trifluoromethyl)-2-[6-(trifluoromethyl)pyrimidin-4-yl]phenyl]-5,6-diazaspiro[3.5]non-8-ene-8-carboxamide]
  Rate of uptake inhibition (%) (1 µM): 43%

## CN1N(Cc2ccc(OCCN3CCOCC3)c(F)c2F)C(=O)C(C(=O)Nc2ccc(C(F)(F)F)cc2-c2cc(C(F)(F)F)ncn2)=C(O)C12CCCCC2 [Example 295]
  Rate of uptake inhibition (%) (1 µM): 21%

## CC(C)[C@@H]1C(O)=C(C(=O)Nc2ccc(C(F)(F)F)cc2-c2cc(C(F)(F)F)ncn2)C(=O)N(Cc2cccc(F)c2F)N1C [Example 249]
  Rate of uptake inhibition (%) (1 µM): 50%

## CN1N(Cc2cccc(F)c2F)C(=O)C(C(=O)Nc2ccc(C(F)(F)F)cc2-c2cc(C#N)ncn2)=C(O)C1(C)C [Example 303]
  Rate of uptake inhibition (%) (1 µM): 42%

## Cc1cccc(CN2C(=O)C(C(=O)Nc3cc(F)c(Br)c(F)c3)=C(O)[C@@]3(C)CCCN23)c1F [Example 195]
  Rate of uptake inhibition (%) (1 µM): 76%

## CSc1ccc(-c2cc(C(F)(F)F)ccc2NC(=O)C2=C(O)[C@H](C(C)(C)C)N(C)N(Cc3ccc(OCCN4CCOCC4)c(F)c3F)C2=O)cn1 [Example 268]
  Rate of uptake inhibition (%) (1 µM): 63%

## CN1N(Cc2ccc(OCCCCCOCCO)c(F)c2F)C(=O)C(C(=O)Nc2ccc(C(F)(F)F)cc2-c2cc(C(F)(F)F)ncn2)=C(O)C12CCCC2 [Example 397]
  Rate of uptake inhibition (%) (1 µM): 40%

## C[C@]12CCCN1N(Cc1ccc(C#CCOCCCCO)c(F)c1F)C(=O)C(C(=O)Nc1ccc(C(F)(F)F)cc1-c1ccc(C(F)(F)F)nc1)=C2O [Example 128]
  Rate of uptake inhibition (%) (1 µM): 72%

## C[C@]12CCCN1N(Cc1cccc(F)c1F)C(=O)C(C(=O)Nc1ccc(C(F)(F)F)cc1-c1cnc(C#N)c([N+](=O)[O-])c1)=C2O [Example 99, (4aR)-N-[2-(6-Cyano-5-nitropyridin-3-yl)-4-(trifluoromethyl)phenyl]-1-[(2,3-difluorophenyl)methyl]-4-hydroxy-4a-methyl-2-oxo-6,7-dihydro-5H-pyrrolo[1,2-b]pyridazine-3-carboxamide]
  Rate of uptake inhibition (%) (1 µM): 82%

## COc1cccc(-c2cc(C(F)(F)F)ccc2NC(=O)C2=C(O)[C@@]3(C)CCCN3N(Cc3ccc(OCc4ccncc4)c(F)c3F)C2=O)c1OC [Example 151, (4aR)-1-[[2,3-Difluoro-4-(pyridin-4-ylmethoxy)phenyl]methyl]-N-[2-(2,3-dimethoxyphenyl)-4-(trifluoromethyl)phenyl]-4-hydroxy-4a-methyl-2-oxo-6,7-dihydro-5H-pyrrolo[1,2-b]pyridazine-3-carboxamide]
  Rate of uptake inhibition (%) (1 µM): 92%

## C[C@]12CCCN1N(Cc1c(F)cccc1Cl)C(=O)C(C(=O)Nc1ccc(C(F)(F)F)cc1-c1ccc(C(F)(F)F)nc1)=C2O [Example 204]
  Rate of uptake inhibition (%) (1 µM): 87%

## C[C@]12CCCN1N(Cc1c(Cl)cc(OCCN3CCOCC3)cc1Cl)C(=O)C(C(=O)Nc1ccc(C(F)(F)F)nc1-c1ccc(C(F)(F)F)nc1)=C2O.Cl [Example 148, (4aR)-1-[[2,6-Dichloro-4-(2-morpholin-4-ylethoxy)phenyl]methyl]-4-hydroxy-4a-methyl-2-oxo-N-[6-(trifluoromethyl)-2-[6-(trifluoromethyl)pyridin-3-yl]pyridin-3-yl]-6,7-dihydro-5H-pyrrolo[1,2-b]pyridazine-3-carboxamide hydrochloride]
  Rate of uptake inhibition (%) (1 µM): 75%

## C[C@]12CCCN1N(Cc1cccc(F)c1F)C(=O)C(C(=O)Nc1ccc(C(F)(F)F)cc1-c1cnc(N3CC4(COC4)C3)c(C#N)c1)=C2O [Example 111, (4aR)-N-[2-[5-Cyano-6-(2-oxa-6-azaspiro[3.3]heptan-6-yl)pyridin-3-yl]-4-(trifluoromethyl)phenyl]-1-[(2,3-difluorophenyl)methyl]-4-hydroxy-4a-methyl-2-oxo-6,7-dihydro-5H-pvrrolo[1,2-b]pyridazine-3-carboxamide]
  Rate of uptake inhibition (%) (1 µM): 56%

## COCCN(C)CCOCCOCCOCCOCCOc1ccc(CN2C(=O)C(C(=O)Nc3ccc(C(F)(F)F)cc3-c3cc(C(F)(F)F)ncn3)=C(O)C3(CCCC3)N2C)c(F)c1F [Example 432]
  Rate of uptake inhibition (%) (1 µM): 11%

## CN1[C@@H](C(C)(C)C)C(O)=C(C(=O)Nc2cccc(C(F)(F)F)n2)C(=O)N1Cc1cccc(F)c1F [Example 244]
  Rate of uptake inhibition (%) (1 µM): 71%

## Cc1c(C#N)ncnc1-c1cc(Cl)ccc1NC(=O)C1=C(O)[C@H](C(C)(C)C)N(C)N(Cc2ccc(OCCN3CCOCC3)c(F)c2F)C1=O [Example 274]
  Rate of uptake inhibition (%) (1 µM): 43%

## Cc1c(Cl)ncnc1-c1cc(Cl)ccc1NC(=O)C1=C(O)[C@H](C(C)(C)C)N(C)N(Cc2ccc(OCCN3CCOCC3)c(F)c2F)C1=O [Example 275]
  Rate of uptake inhibition (%) (1 µM): 42%

## C[C@]12CCCN1N(Cc1cccc(Cl)c1)C(=O)C(C(=O)Nc1ccc(C(F)(F)F)cc1-c1ccc(C(F)(F)F)nc1)=C2O [Example 169]
  Rate of uptake inhibition (%) (1 µM): 73%

## CN1N(Cc2ccc(OCCN3CC(F)(F)C3)c(F)c2F)C(=O)C(C(=O)Nc2ccc(C(F)(F)F)cc2-c2cc(C(F)(F)F)ncn2)=C(O)C12CCCC2 [Example 369]
  Rate of uptake inhibition (%) (1 µM): 43%

## CN1N(Cc2ccc(OC(C)(C)CN3CCOCC3)c(F)c2F)C(=O)C(C(=O)Nc2ccc(C(F)(F)F)cc2-c2cc(C(F)(F)F)ncn2)=C(O)C12CCC2 [Example 407, 6-[[2,3-Difluoro-4-(2-methyl-1-morpholin-4-ylpropan-2-yl)oxyphenyl]methyl]-9-hydroxy-5-methyl-7-oxo-N-[4-(trifluoromethyl)-2-[6-(trifluoromethyl)pyrimidin-4-yl]phenyl]-5,6-diazaspiro[3.5]non-8-ene-8-carboxamide]
  Rate of uptake inhibition (%) (1 µM): 30%

## C[C@]12CCCN1N(Cc1cccc(Cl)c1F)C(=O)C(C(=O)Nc1ccc(C(F)(F)F)cc1-c1ccc(C(F)(F)F)nc1)=C2O [Example 198]
  Rate of uptake inhibition (%) (1 µM): 75%

## CSc1ncc(-c2cc(C(F)(F)F)ccc2NC(=O)C2=C(O)[C@@]3(C)CCCN3N(Cc3ccc(OCCN4CCOCC4)c(F)c3F)C2=O)cn1 [Example 104]
  Rate of uptake inhibition (%) (1 µM): 73%

## CN1N(Cc2ccc(OCCOCCNC(=O)[C@@H](O)[C@H](O)[C@@H](O)[C@@H](O)CO)c(F)c2F)C(=O)C(C(=O)Nc2ccc(C(F)(F)F)cc2-c2cc(C(F)(F)F)ncn2)=C(O)C12CCCC2 [Example 427, 7-[[2,3-Difluoro-4-[2-[2-[[(2S,3R,4S,5S)-2,3,4,5,6-pentahydroxyhexanoyl]amino]ethoxy]ethoxy]phenyl]methyl]-10-hydroxy-6-methyl-8-oxoN-[4-(trifluoromethyl)-2-[6-(trifluoromethyl)pyrimidin-4-yl]phenyl]-6,7-diazaspiro[4.5]dec-9-ene-9-carboxamide]
  Rate of uptake inhibition (%) (1 µM): 12%

## CSc1ccc(-c2cc(C(F)(F)F)ccc2NC(=O)C2=C(O)C(C)(C)N(C)N(Cc3cccc(F)c3F)C2=O)cn1 [Example 310]
  Rate of uptake inhibition (%) (1 µM): 63%

## CN1[C@@H](C(C)(C)C)C(O)=C(C(=O)Nc2ccc(Br)c(C(F)(F)F)c2)C(=O)N1Cc1cccc(F)c1F [Example 243]
  Rate of uptake inhibition (%) (1 µM): 63%

## C[C@]12CCCN1N(Cc1cccc(F)c1F)C(=O)C(C(=O)Nc1ccc(C(F)(F)F)cc1)=C2O [Example 89]
  Rate of uptake inhibition (%) (1 µM): 67%

## CN1N(Cc2ccc(NCCCN3CCOCC3)c(F)c2F)C(=O)C(C(=O)Nc2ccc(C(F)(F)F)cc2-c2cc(C(F)(F)F)ncn2)=C(O)C12CCCC2 [Example 446]
  Rate of uptake inhibition (%) (1 µM): 31%

## CN(CCOc1ccc(CN2C(=O)C(C(=O)Nc3ccc(C(F)(F)F)cc3-c3cc(C(F)(F)F)ncn3)=C(O)C3(CCCC3)N2C)c(F)c1F)C1CCOC1 (centres unmarked) [Example 366]
  Rate of uptake inhibition (%) (1 µM): 38%

## CN1N(Cc2ccc(NCCN3CCOCC3)c(F)c2F)C(=O)C(C(=O)Nc2ccc(C(F)(F)F)cc2-c2cc(C(F)(F)F)ncn2)=C(O)C12CCCC2 [Example 447]
  Rate of uptake inhibition (%) (1 µM): 50%

## CC(=O)NCCN(C)CCOc1ccc(CN2C(=O)C(C(=O)Nc3ccc(C(F)(F)F)cc3-c3cc(C(F)(F)F)ncn3)=C(O)C3(CCC3)N2C)c(F)c1F [Example 353]
  Rate of uptake inhibition (%) (1 µM): 26%

## C[C@]12CCCN1N(Cc1cccc(F)c1F)C(=O)C(C(=O)Nc1ccc(Cl)cc1-c1ccc(C(F)(F)F)nc1)=C2O [Example 86]
  Rate of uptake inhibition (%) (1 µM): 83%
